The numbers were not newly measured in patent US8084444B2, “Treatment of dermatitis with dehydroepiandrosterone-glucocorticoid combinations” (RxDino, LLC, priority 2004, dated 2011), which cites them from elsewhere.

The conditions of this data set: equivalent in glucocorticoid potency.

Regarding `C[C@]12C=CC(=O)C=C1CC[C@H]1[C@@H]3C[C@@H](O)[C@](O)(C(=O)CO)[C@@]3(C)C[C@H](O)[C@@]12F` [Triamcinolone], the “Approximate Glucocorticoid Dose Equivalent” value is ~0.8 mg.
With `C[C@]12CCC(=O)C=C1CC[C@@H]1[C@@H]2C(=O)C[C@@]2(C)[C@H]1CC[C@]2(O)C(=O)CO` [Cortisone], the “Approximate Glucocorticoid Dose Equivalent” value is listed as ~25 mg.
Consider `C[C@]12C=CC(=O)C=C1CC[C@@H]1[C@@H]2[C@@H](O)C[C@@]2(C)[C@H]1CC[C@]2(O)C(=O)CO` [Prednisolone], for which the “Approximate Glucocorticoid Dose Equivalent” value is listed as ~5 mg.
Turning to `C[C@]12CCC(=O)C=C1CC[C@@H]1[C@@H]2[C@@H](O)C[C@@]2(C)[C@H]1CC[C@]2(O)C(=O)CO` [Hydrocortisone], the “Approximate Glucocorticoid Dose Equivalent” value is listed as ~20 mg.
